Among the data in patent US8426447B2, “Spiro-tricyclic ring compounds as beta-secretase modulators and methods of use” (Amgen Inc., priority 2008, dated 2013) are IC50 values, retold here.

For test [1], the target named is T1, BACE1 (Homo sapiens, UniProt P56817). Put plainly: In Vitro Enzymatic BACE FRET (Fluorescence Resonance Energy Transfer) Assay. The class given is biochemical. How it is done: In Vitro Enzymatic BACE FRET (Fluorescence Resonance Energy Transfer) Assay (Enzyme Assay Data in the Example Tables I, II, III & IV) The assay buffer used in this screen is 0.05 M acetate, pH 4.2, 10% DMSO final, 100 uM genapol (which is a nonionic detergent, below its Critical Micelle Concentration). […] This assay is effectively started by the addition of FRET substrate (50 nM) and the combination is incubated for one hour. The FRET assay is terminated with by addition of Tris buffer, which raises the pH to neutrality, and the fluorescence is determined. The FRET substrate is a peptide with commercially available fluorophore and quencher, on opposite sides of the BACE cleavage site. […]

The target of test [2] is T1, BACE1. Put plainly: In Vitro BACE Cell-based Assay (HEK cell assay): Aβ40 in conditioned medium of cells stably expressing Amyloid Precursor Protein, sandwich ELISA. How it is done:
In Vitro BACE Cell-based Assay
The cell-based assay measures inhibition or reduction of Aβ40 in conditioned medium of test compound treated cells expressing amyloid precursor protein.
Cells stably expressing Amyloid Precursor Protein (APP) were plated at a density of 40K cells/well in 96 well plates (Costar). The cells were cultivated for 24 hours at 37° C. and 5% CO2 in DMEM supplemented with 10% FBS. The test compounds were then added to cells in 10-point dose response concentrations with the starting concentration being either 100 μM or 10 μM. The compounds were diluted from stock solutions in DMSO and the final DMSO concentration of the test compounds on cells was 0.1%. After 24 h of incubation with the test compounds the supernatant conditioned media was collected and the Aβ 40 levels were determined using a sandwich ELISA. The IC50 of the compound was calculated from the percent of control or percent inhibition of Aβ 40 as a function of the concentration of the test compound.
The sandwich ELISA to detect Aβ 40 was performed in 96 well microtiter plates, which were pre-treated with goat anti-rabbit IgG (Pierce). The capture and detecting antibody pair that were used to detect Aβ 40 from cell supernatants were affinity purified pAb40 (Biosource) and biotinylated 6E10 (Signet Labs Inc.), respectively. The optimal concentration for the pAb40 antibody was 3 μg/ml in Superblock/TBS (Pierce) that was supplemented with 0.05% Tween 20 (Sigma).
Cellular supernatants were incubated with the capture antibody for 3 h at 4° C., followed by 3 wash steps in TBS-tween (0.05%). The detecting antibody incubation was for 2 h at 4° C., again followed by the wash steps as described previously. The final readout of the ELISA is Time-Resolved Fluorescence (counts per minute) using Delfia reagents Streptavidin-Europium and Enhancement solutions (Perkin Elmer) and the Victor 2 multilabel counter (Perkin Elmer).
(In general: An ELISA detects its analyte on a solid surface through an enzyme-linked reagent.)

Where [3] appears, read: Table III, IC50's in uM ranges, read-out: BACE1 FRET assay.
[4] abbreviates: Table III, IC50's in uM ranges, read-out: HEK cell assay.
Where [5] appears, read: Table IV, class symbols, read-out: BACE1 FRET assay.
Setting [6] is: Table IV, class symbols, read-out: HEK cell assay.
The mark [7] stands for this setting: in vitro BACE FRET enzyme assay, IC50 class symbols, read-out: BACE1 FRET assay.
[8] abbreviates: HEK cell-based assay, Aβ40 in conditioned medium, IC50 class symbols, read-out: HEK cell assay.
Where [9] appears, read: HEK cells, read-out: HEK cell assay.
[10] abbreviates: Table 1, read-out: BACE1 FRET assay.
The mark [11] stands for this setting: Table 1, Aβ40, 24 h incubation, read-out: HEK cell assay.

T1 sequence (P56817 46-501, species assumed): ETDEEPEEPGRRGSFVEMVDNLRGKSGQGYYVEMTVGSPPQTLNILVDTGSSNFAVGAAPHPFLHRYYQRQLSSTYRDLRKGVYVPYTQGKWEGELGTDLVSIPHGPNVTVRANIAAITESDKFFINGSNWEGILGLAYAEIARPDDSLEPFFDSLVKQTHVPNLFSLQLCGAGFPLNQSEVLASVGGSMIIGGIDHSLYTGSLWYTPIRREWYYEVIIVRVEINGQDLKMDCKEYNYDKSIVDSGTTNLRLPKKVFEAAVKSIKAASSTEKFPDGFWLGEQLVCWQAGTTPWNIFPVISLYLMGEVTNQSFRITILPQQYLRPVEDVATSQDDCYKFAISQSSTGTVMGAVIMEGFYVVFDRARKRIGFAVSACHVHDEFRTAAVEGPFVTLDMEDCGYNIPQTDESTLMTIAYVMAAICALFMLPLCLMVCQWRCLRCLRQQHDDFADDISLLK

As to `CC(C)(O)COc1ccc2c(c1)[C@]1(COC(N)=N1)c1cc(-c3cncc(F)c3)ccc1O2` [compound 224], the IC50 in test [1] (setting [3]) and in test [2] (setting [4]) was less than 0.1 µM in each case.
For `CC(C)(C)C#Cc1cnc2c(c1)[C@@]1(COC(N)=N1)c1cc(-c3cncnc3)cc(F)c1O2` [compound 538], the IC50 in test [1] (setting [5]) and in test [2] (setting [6]) was 0.1 to 1 µM throughout.
With `NC1=N[C@@]2(CO1)c1cc(-c3cncnc3)ccc1Oc1ccc(C(F)(F)F)cc12` [compound 597], the IC50 in test [1] (setting [5]) and in test [2] (setting [6]) was 0.1 to 1 µM throughout.
For `COc1ccc2c(c1)[C@]1(COC(N)=N1)c1cc(-c3cnc4ccccc4c3)ccc1O2` [compound 633], the IC50 in test [1] (setting [5]) and in test [2] (setting [6]) was 1 to 5 µM throughout.
On to `NC1=N[C@@]2(CO1)c1cc(-c3cncc(F)c3)ccc1Oc1cnc(C3=CCOCC3)cc12` [compound 368, (5S)-3-(3,6-dihydro-2H-pyran-4-yl)-7-(5-fluoro-3-pyridinyl)spiro[chromeno[2,3-c]pyridine-5,4′-[1,3]oxazol]-2′-amine], for which the IC50 in test [1] (setting [7]) and in test [2] (setting [8]) was less than 0.1 µM in each case.
On to `CC(C)(C)COc1ccc2c(c1)[C@@]1(COC(N)=N1)c1cc(-c3ccc(F)nc3)cnc1O2` [compound 868], for which the IC50 in test [1] (setting [5]) and in test [2] (setting [6]) was less than 0.1 µM each time.
In the case of `NC1=N[C@@]2(CO1)c1cc(-c3cccnc3)ccc1Oc1ccc(N3CCOCC3)nc12` [compound 334], the IC50 in test [1] (setting [7]) and in test [2] (setting [8]) was 0.1 to 1 µM throughout.
`COc1ccncc1-c1ccc2c(c1)[C@@]1(COC(N)=N1)c1cc(OCC(C)(C)C)ccc1O2` [compound 217]: the IC50 in test [1] (setting [3]) is 0.1 to 1 µM; in test [2] (setting [4]), 1 to 5 µM.
With `CC(C)(F)COc1cc(F)c2c(c1)[C@]1(COC(N)=N1)c1cc(-c3cccnc3)ccc1O2` [compound 381], the IC50 in test [1] (setting [7]) and in test [2] (setting [8]) was less than 0.1 µM in each case.
For the compound `NC1=NC2(CO1)c1cc(-c3cccnc3)ccc1Oc1ncc(-c3cccnc3)cc12` (stereo not drawn) [Example 113, 3,7-di-3-pyridinylspiro[chromeno[2,3-b]pyridine-5,4′-[1,3]oxazol]-2′-amine], the IC50 in test [1] (setting [3]) and in test [2] (setting [4]) was less than 0.1 µM throughout.
In the case of `NC1=N[C@@]2(CS1)c1cc(Cl)ccc1Oc1ccc(-c3cncnc3)cc12` [Example 39, (4R)-2′-chloro-7′-(5-pyrimidinyl)spiro[1,3-thiazole-4,9′-xanthen]-2-amine], the IC50 in test [1] (Table II, read-out: BACE1 FRET assay) was 0.1 to 1 µM; in test [2] (Table II, Aβ40, 24 h incubation, read-out: HEK cell assay), more than 5 µM.
`COC(C)(C)CCc1ccc2c(c1)C1(COC(N)=N1)c1cc(-c3cccnc3)cnc1O2` (racemic) [Example 110, rac-7-(3-methoxy-3-methylbutyl)-3-(3-pyridinyl)spiro[chromeno[2,3-b]pyridine-5,4′-[1,3]oxazol]-2′-amine]: the IC50 in test [1] (setting [3]) was less than 0.1 µM; in test [2] (setting [4]), 0.1 to 1 µM.
Turning to `CC(C)(C)COc1cnc2c(c1)[C@]1(COC(N)=N1)c1cc(-c3ccccc3)ccc1O2` [compound 469], the IC50 in test [1] (read-out: BACE1 FRET assay) is less than 0.1 µM; in test [2] (setting [9]), 0.1 to 1 µM.
Turning to `CC(C)(C)CCOc1nccc2c1C1(COC(N)=N1)c1cc(-c3cncnc3)ccc1O2` (stereo not drawn) [Example 109, 1-(3,3-Dimethylbutoxy)-8-(pyrimidin-5-yl)-5′H-spiro[chromeno[3,2-c]pyridine-10,4′-oxazol]-2′-amine], the IC50 in test [1] (setting [3]) and in test [2] (setting [4]) was 0.1 to 1 µM throughout.
Consider `CC(C)(C)COc1ccc2c(n1)[C@]1(COC(N)=N1)c1cc(-c3cncnc3)ccc1O2` [compound 733], for which the IC50 in test [1] (read-out: BACE1 FRET assay) and in test [2] (read-out: HEK cell assay) was less than 0.1 µM in each case.
As to `CC(C)(C#N)COc1cnc2c(c1)[C@]1(COC(N)=N1)c1cc(-c3ccccc3)ccc1O2` [compound 409], the IC50 was less than 0.1 µM in test [1] (setting [7]) and 0.1 to 1 µM in test [2] (setting [8]).
In the case of `CC1(C#Cc2cnc3c(c2)[C@]2(COC(N)=N2)c2cc(-c4ccccc4F)ccc2O3)COC1` [compound 520], the IC50 in test [1] (read-out: BACE1 FRET assay) and in test [2] (setting [9]) was less than 0.1 µM each time.
For `COc1ccc2c(c1)[C@]1(COC(N)=N1)c1cc(-c3cc(Cl)ccc3F)ccc1O2` [Example 12, (4S)-2′-(5-chloro-2-fluorophenyl)-7′-methoxyspiro[1,3-oxazole-4,9′-xanthen]-2-amine trifluoroacetic acid], the IC50 was 0.1 to 1 µM in test [1] (setting [10]) and more than 5 µM in test [2] (setting [11]).
As to `CC(C)(C)C#Cc1ccc2c(c1)[C@]1(COC(N)=N1)c1cc(C3=CCOCC3)ncc1O2` [compound 800], the IC50 was 0.1 to 1 µM in test [1] (setting [5]) and 1 to 5 µM in test [2] (setting [6]).
With `NC1=N[C@]2(CO1)c1cc(C#CC3CCCCC3)ccc1Oc1ccc(-c3cncnc3)cc12` [compound 138], the IC50 was less than 0.1 µM in test [1] (setting [3]) and 0.1 to 1 µM in test [2] (setting [4]).
For `CC1(COc2ccc3c(c2)[C@]2(COC(N)=N2)c2cc(Br)cnc2O3)COC1` [compound 164], the IC50 fell in the range of 0.1 to 1 µM in test [1] (setting [3]) and 1 to 5 µM in test [2] (setting [4]).
Turning to `Cc1cncc(-c2ccc3c(c2)[C@@]2(COC(N)=N2)c2cc(C4=CCOCC4)ncc2O3)c1` [compound 326], the IC50 in test [1] (setting [7]) and in test [2] (setting [8]) was less than 0.1 µM throughout.
Take `COc1ccc2c(c1)C1(COC(N)=N1)c1cc(-c3cccc(OC(F)(F)F)c3)ccc1O2` (stereo not drawn) [Example 22, 2′-methoxy-7′-(3-(trifluoromethoxy)phenyl)spiro[1,3-oxazole-4,9′-xanthen]-2-amine]: the IC50 in test [1] (setting [10]) and in test [2] (setting [11]) was 1 to 5 µM throughout.
Consider `CC(C)(O)COc1ccc2c(c1)[C@]1(COC(N)=N1)c1cc(-c3ccccc3)ccc1O2` [compound 221], for which the IC50 in test [1] (setting [3]) is less than 0.1 µM; in test [2] (setting [4]), 0.1 to 1 µM.
Take `NC1=N[C@@]2(CO1)c1cc(-c3cc(F)ccc3F)ccc1Oc1ncc(N3C[C@@H]4C[C@H]3CO4)cc12` [compound 453]: the IC50 in test [1] (read-out: BACE1 FRET assay) and in test [2] (setting [9]) was less than 0.1 µM in each case.
For the compound `COc1ccc2c(c1)[C@]1(COC(N)=N1)c1cc(NC(=O)c3cc(Cl)ccn3)ccc1O2` [compound 534], the IC50 in test [1] (setting [5]) was 1 to 5 µM; in test [2] (setting [6]), more than 5 µM.
On to `COc1ccc2c(c1)[C@]1(COC(N)=N1)c1cc(-c3cccc4ncccc34)ccc1O2` [compound 591], for which the IC50 in test [1] (setting [5]) and in test [2] (setting [6]) was 1 to 5 µM in each case.
`NC1=N[C@]2(CO1)c1cc(-c3cccnc3)ccc1Oc1ccc(-c3cncnc3)cc12` [Example 124, (R)-2′-(pyridin-3-yl)-7′-(pyrimidin-5-yl)-5H-spiro[oxazole-4,9′-xanthen]-2-amine]: the IC50 in test [1] (setting [3]) and in test [2] (setting [4]) was less than 0.1 µM each time.
Turning to `NC1=N[C@]2(CO1)c1cc(-c3cccnc3F)ccc1Oc1c(F)cccc12` [compound 574], the IC50 in test [1] (setting [5]) is less than 0.1 µM; in test [2] (setting [6]), 0.1 to 1 µM.
With `Cc1cnc(F)c(-c2ccc3c(c2)[C@@]2(COC(N)=N2)c2cccnc2O3)c1` [compound 571], the IC50 in test [1] (setting [5]) and in test [2] (setting [6]) was 0.1 to 1 µM each time.
For `NC1=N[C@@]2(CO1)c1cc(-c3cccnc3)ccc1Oc1cnc(N3CCOCC3)cc12` [compound 335], the IC50 in test [1] (setting [7]) and in test [2] (setting [8]) was less than 0.1 µM in each case.
With `NC1=N[C@@]2(CO1)c1cc(-c3cccnc3F)ccc1Oc1cnc(-c3ccncc3)cc12` [Example 515, (5S)-7-(2-fluoro-3-pyridinyl)-3-(4-pyridinyl)spiro[chromeno[2,3-c]pyridine-5,4′-[1,3]oxazol]-2′-amine], the IC50 was less than 0.1 µM in test [1] (BACE1 FRET assay (uM)) and less than 0.1 µM in test [2] (HEK cell assay (uM), HEK cells).
For `CC(C)(C)COc1ccc2c(c1)[C@@]1(COC(N)=N1)c1cc(-c3ccc(C#N)nc3)ccc1O2` [compound 782], the results for the IC50 in test [1] (read-out: BACE1 FRET assay) and in test [2] (read-out: HEK cell assay) were less than 0.1 µM and 0.1 to 1 µM, respectively.
For the compound `NC1=NC2(CO1)c1cc(C3=CCOCC3)ccc1Oc1ccc(C3=CCOCC3)cc12` [compound 757], the IC50 in test [1] (read-out: BACE1 FRET assay) and in test [2] (read-out: HEK cell assay) was 0.1 to 1 µM in each case.
For the compound `Cc1ccc(-c2ccc3c(c2)[C@]2(COC(N)=N2)c2cc(-c4cncnc4)ccc2O3)cc1` [compound 226], the IC50 in test [1] (setting [3]) and in test [2] (setting [4]) was less than 0.1 µM in each case.
As to `NC1=N[C@@]2(CO1)c1cc(-c3ccccc3F)ccc1Oc1cnc(Cl)cc12` [compound 425], the IC50 is 0.1 to 1 µM in test [1] (read-out: BACE1 FRET assay) and more than 5 µM in test [2] (setting [9]).
